Test results taken from patent US12685735B2 (Foghorn Therapeutics Inc., priority 2020, dated 2026).

Experiments:
BRM = BRM (Homo sapiens, UniProt P51531); assay: ATPase catalytic activity assay of BRM (ADP-Glo); format: biochemical; conditions: 30 nM BRM, 400 μM ATP; for IC50: read-out: BRM IC50 (μM)*
How it was run: (§1)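 ADP formed by the ATPase reaction was quantified by ADP-Glo luminescence. After the reaction, unconsumed ATP was depleted (40 min, room temperature), then ADP was converted to ATP for luciferase detection (60 min, room temperature) before reading on a luminometer.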

BRG-1 = BRG-1 (Homo sapiens, UniProt P51532); assay: ATPase catalytic activity assay of BRG-1 (ADP-Glo); format: biochemical; conditions: ATPase catalytic activity, ADP-Glo, 30 nM BRG-1, 400 μM ATP; for IC50: read-out: BRG1 IC50 (μM)*; for Emax: read-out: BRG1 Max % Inhibition
Sequence of BRG-1 (P51532 whole entry): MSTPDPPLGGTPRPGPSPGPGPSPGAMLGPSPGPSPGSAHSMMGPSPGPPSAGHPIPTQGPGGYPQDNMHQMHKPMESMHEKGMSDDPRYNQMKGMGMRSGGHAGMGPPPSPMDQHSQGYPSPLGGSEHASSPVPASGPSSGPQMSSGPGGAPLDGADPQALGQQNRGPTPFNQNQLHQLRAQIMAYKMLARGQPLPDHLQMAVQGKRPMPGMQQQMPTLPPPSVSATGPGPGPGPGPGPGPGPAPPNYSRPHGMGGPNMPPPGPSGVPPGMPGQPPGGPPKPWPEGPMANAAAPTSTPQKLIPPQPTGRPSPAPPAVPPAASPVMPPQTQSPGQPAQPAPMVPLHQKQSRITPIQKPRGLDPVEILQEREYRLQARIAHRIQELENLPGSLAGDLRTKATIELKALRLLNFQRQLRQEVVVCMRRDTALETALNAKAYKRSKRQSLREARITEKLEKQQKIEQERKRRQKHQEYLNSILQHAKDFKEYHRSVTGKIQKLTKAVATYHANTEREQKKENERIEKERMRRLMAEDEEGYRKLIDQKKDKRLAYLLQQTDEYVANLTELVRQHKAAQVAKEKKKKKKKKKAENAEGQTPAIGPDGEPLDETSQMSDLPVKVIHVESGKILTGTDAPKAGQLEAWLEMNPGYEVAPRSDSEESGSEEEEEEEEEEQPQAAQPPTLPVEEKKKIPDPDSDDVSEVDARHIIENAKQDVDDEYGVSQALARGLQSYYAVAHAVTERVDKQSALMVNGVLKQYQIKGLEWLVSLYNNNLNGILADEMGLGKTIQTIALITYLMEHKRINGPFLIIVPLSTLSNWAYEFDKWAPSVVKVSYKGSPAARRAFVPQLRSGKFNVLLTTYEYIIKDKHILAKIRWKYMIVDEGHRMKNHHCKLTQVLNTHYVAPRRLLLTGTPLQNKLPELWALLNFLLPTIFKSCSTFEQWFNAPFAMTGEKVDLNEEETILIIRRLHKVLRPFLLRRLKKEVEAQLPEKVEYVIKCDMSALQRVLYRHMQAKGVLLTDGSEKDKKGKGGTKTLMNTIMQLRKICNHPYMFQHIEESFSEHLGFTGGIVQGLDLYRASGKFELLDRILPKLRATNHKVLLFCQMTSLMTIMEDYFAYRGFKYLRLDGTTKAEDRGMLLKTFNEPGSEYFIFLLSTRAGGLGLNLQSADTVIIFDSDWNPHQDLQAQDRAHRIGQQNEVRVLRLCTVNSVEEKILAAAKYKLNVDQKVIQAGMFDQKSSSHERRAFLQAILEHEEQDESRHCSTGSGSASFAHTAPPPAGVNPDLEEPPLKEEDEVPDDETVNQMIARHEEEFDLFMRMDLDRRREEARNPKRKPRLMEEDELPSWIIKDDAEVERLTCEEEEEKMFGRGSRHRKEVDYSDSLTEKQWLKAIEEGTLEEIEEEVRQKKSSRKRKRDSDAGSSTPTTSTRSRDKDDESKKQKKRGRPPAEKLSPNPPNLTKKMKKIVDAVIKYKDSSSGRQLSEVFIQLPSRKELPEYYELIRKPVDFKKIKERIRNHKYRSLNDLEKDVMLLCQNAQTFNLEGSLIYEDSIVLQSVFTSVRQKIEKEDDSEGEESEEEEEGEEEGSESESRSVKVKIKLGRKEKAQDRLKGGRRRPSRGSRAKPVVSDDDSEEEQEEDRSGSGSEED
How it was run: as §1

[1] = test system: Uveal melanoma cell lines, 92-1 or MP41; assay: Comparison of BRG1/BRM inhibitor to clinical PKC and MEK inhibitors, cell growth (Cell-titer glo, 3 days); format: cell-based; conditions: 92-1 or MP41 cells, versus LXS196 and Selumetinib
Description: Procedure: Uveal melanoma cell lines, 92-1 or MP41, were plated in 96 well plates in the presence of growth media (See Table 6). […] Cells were incubated at 37 degrees Celsius for 3 days. After three days of treatment, cell growth was measured with Cell-titer glow (Promega), and luminescence was read on an Envision plate reader (Perkin Elmer).

Sequence of BRM (P51531 whole entry): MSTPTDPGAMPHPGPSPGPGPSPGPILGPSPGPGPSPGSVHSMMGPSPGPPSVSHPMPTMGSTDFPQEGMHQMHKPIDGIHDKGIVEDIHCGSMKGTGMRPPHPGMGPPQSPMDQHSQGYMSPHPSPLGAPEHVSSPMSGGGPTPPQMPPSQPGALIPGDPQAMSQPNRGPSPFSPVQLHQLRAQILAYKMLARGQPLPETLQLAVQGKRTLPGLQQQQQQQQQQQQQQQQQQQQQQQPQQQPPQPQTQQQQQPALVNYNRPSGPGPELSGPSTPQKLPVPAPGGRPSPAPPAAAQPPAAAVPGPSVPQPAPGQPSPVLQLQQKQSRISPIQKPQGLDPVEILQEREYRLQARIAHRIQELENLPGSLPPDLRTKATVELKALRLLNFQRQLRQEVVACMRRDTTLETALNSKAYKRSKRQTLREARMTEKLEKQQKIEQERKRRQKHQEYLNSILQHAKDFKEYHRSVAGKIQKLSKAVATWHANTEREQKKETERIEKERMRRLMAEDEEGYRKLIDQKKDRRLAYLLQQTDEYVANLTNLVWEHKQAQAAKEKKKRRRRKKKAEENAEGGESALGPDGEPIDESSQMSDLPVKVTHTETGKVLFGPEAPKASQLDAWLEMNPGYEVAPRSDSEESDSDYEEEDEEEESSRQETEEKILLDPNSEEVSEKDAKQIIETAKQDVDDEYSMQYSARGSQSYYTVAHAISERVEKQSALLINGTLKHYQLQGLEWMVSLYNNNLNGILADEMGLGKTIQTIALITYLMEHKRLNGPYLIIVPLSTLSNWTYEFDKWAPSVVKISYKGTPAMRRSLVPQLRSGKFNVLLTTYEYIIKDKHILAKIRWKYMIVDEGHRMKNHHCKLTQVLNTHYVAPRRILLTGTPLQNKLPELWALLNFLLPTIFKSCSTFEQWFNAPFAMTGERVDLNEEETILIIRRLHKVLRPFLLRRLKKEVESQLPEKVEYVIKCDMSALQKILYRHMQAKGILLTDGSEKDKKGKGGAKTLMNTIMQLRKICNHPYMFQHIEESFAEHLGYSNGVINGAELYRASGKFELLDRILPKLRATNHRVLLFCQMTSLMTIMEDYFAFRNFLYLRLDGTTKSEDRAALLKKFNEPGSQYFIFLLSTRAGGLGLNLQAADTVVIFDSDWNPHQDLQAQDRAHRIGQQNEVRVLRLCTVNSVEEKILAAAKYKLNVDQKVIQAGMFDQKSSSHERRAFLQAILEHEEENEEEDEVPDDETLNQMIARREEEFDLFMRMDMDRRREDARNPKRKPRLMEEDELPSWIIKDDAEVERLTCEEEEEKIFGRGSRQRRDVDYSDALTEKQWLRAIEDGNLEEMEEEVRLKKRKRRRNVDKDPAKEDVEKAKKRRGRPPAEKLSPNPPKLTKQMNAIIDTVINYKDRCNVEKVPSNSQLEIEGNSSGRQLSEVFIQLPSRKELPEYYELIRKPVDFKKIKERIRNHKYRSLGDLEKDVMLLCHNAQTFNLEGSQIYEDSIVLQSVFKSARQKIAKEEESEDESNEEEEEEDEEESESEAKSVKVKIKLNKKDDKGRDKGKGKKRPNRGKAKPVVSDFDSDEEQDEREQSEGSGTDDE

SMILES | BRM Max % Inhibition (BRM) [%] | IC50 (BRM) [µM] | IC50 (BRG-1) [µM] | Emax (BRG-1) [%] | growth inhibition of uveal melanoma cells compared with the clinical PKC and MEK inhibitors ([1]; 0 to 10 micromolar, 3 days, FIGS. 2A and 2B) | onset of inhibition compared with the clinical PKC and MEK inhibitors [1]
COC[C@H](NC(=O)c1ccnc(C(C)(C)C)c1)C(=O)Nc1nc(-c2cccc(N3C[C@@H](C)O[C@@H](C)C3)c2)cs1 [Compound 436, 2-(tert-butyl)-N-((S)-1-((4-(3-((cis)-2,6-dimethylmorpholino)phenyl)thiazol-2-yl)amino)-3-methoxy-1-oxopropan-2-yl)isonicotinamide] | >90 | 0.1 to 1 | 1 to 5 | > 90 |  | 
C[C@@H]1CN(c2cccc(-c3csc(NC(=O)CNC(=O)c4ccc5c(c4)[C@](C)(O)COC5)n3)c2)C[C@H](C)O1 [Compound 438, (S)-N-(2-((4-(3-((cis)-2,6-dimethylmorpholino)phenyl)thiazol-2-yl)amino)-2-oxoethyl)-4-hydroxy-4-methylisochromane-6-carboxamide] | >95 | 0.1 to 1 | 1 to 5 | > 95 |  | 
C[C@@H]1CN(c2cccc(-c3csc(NC(=O)CNC(=O)c4cncc(C(C)(C)C)c4)n3)c2)C[C@H](C)O1 [Compound 443, 5-(tert-butyl)-N-(2-((4-(3-((cis)-2,6-dimethylmorpholino)phenyl)thiazol-2-yl)amino)-2-oxoethyl)nicotinamide] | >95 | < 0.1 | 0.1 to 1 | > 95 |  | 
CSCC[C@H](NC(=O)c1ccc(N)cc1)C(=O)Nc1nc(-c2cccc(-c3ccncc3)c2)cs1 [Compound A] |  |  |  |  | comparable growth inhibition | faster onset of inhibition

The next lines start with results.

BRM Max % Inhibition (BRM) [%] | IC50 (BRM) [µM] | IC50 (BRG-1) [µM] | Emax (BRG-1) [%] | SMILES | growth inhibition of uveal melanoma cells compared with the clinical PKC and MEK inhibitors ([1]; 0 to 10 micromolar, 3 days, FIGS. 2A and 2B) | onset of inhibition compared with the clinical PKC and MEK inhibitors [1]
>95 | < 0.1 | 0.1 to 1 | > 95 | C[C@@H]1CN(c2cccc(-c3csc(NC(=O)CNC(=O)c4ccc5c(c4)[C@@](C)(O)COC5)n3)c2)C[C@H](C)O1 [Compound 437, (R)-N-(2-((4-(3-((cis)-2,6-dimethylmorpholino)phenyl)thiazol-2-yl)amino)-2-oxoethyl)-4-hydroxy-4-methylisochromane-6-carboxamide] |  | 
>95 | < 0.1 | 0.1 to 1 | > 95 | C[C@@H]1CN(c2cccc(-c3csc(NC(=O)CNC(=O)c4ccc5c(c4)C(C#N)(CO)CCO5)n3)c2)C[C@H](C)O1 (stereo partly drawn) [Compound 444, 4-cyano-N-(2-((4-(3-((cis)-2,6-dimethylmorpholino)phenyl)thiazol-2-yl)amino)-2-oxoethyl)-4-(hydroxymethyl)chromane-6-carboxamide] |  | 
